Data from paper PMC7587356, “High-Throughput Screening for Inhibitors of the SARS-CoV-2 Protease Using a FRET-Biosensor” (Molecules, 2020).
Structures can show the parent of a compound that is named as a salt. Where two headings read alike, the source gives them in different places.

Molecular target: SARS-CoV-2 3CLpro (Severe acute respiratory syndrome coronavirus 2, UniProt P0DTD1)
Experiment: biochemical
Assay type: biochemical
Set-up: Replicate_1 / Replicate_2 / mean / mean (LOPAC_screen_w_protease): unit not given here
Conditions: for inhibition at 5 µM: 4 h
[1] = sheet LOPAC_screen_w_protease, primary screen with protease, mean of two replicates, read-out: mean
[2] = sheet LOPAC_screen_w_protease, primary screen with protease, replicate 1, read-out: Replicate_1
[3] = sheet LOPAC_screen_w_protease, primary screen with protease, replicate 2, read-out: Replicate_2
[4] = sheet LOPAC_screen_w_protease, primary screen at 5 µM, mean of two replicates
[5] = sheet LOPAC_screen_w_protease, primary screen at 5 µM, replicate 1
[6] = sheet LOPAC_screen_w_protease, primary screen at 5 µM, replicate 2
[7] = LOPAC1280 primary screen with protease, 5 µM compound, mean of two replicates
[8] = LOPAC1280 primary screen with protease, 5 µM compound, replicate 1
[9] = LOPAC1280 primary screen with protease, 5 µM compound, replicate 2
[10] = sheet LOPAC_screen_w_protease, LOPAC1280 primary screen at 5 µM, with protease, mean of the two replicates
[11] = sheet LOPAC_screen_w_protease, LOPAC1280 primary screen at 5 µM, with protease, replicate 1
[12] = sheet LOPAC_screen_w_protease, LOPAC1280 primary screen at 5 µM, with protease, replicate 2
[13] = LOPAC1280 primary screen with protease, 5 µM compound, replicate 1, read-out: Replicate_1 (LOPAC_screen_w_protease)
[14] = LOPAC1280 primary screen with protease, 5 µM compound, replicate 2, read-out: Replicate_2 (LOPAC_screen_w_protease)
[15] = LOPAC1280 primary screen with protease, 5 µM compound, mean of the two replicates
[16] = sheet LOPAC_screen_w_protease, primary screen at 5 µM, mean of two replicates, read-out: mean (LOPAC screen with protease)
[17] = sheet LOPAC_screen_w_protease, primary screen at 5 µM, replicate 1, read-out: Replicate_1 (LOPAC screen with protease)
[18] = sheet LOPAC_screen_w_protease, primary screen at 5 µM, replicate 2, read-out: Replicate_2 (LOPAC screen with protease)
[19] = sheet LOPAC_screen_w_protease, primary screen with protease, 5 µM, mean of two replicates
[20] = sheet LOPAC_screen_w_protease, primary screen with protease, 5 µM, replicate 1
[21] = sheet LOPAC_screen_w_protease, primary screen with protease, 5 µM, replicate 2
[22] = sheet LOPAC_screen_w_protease, LOPAC1280 primary screen with protease, 5 µM compound, mean of the two replicates, read-out: mean
[23] = sheet LOPAC_screen_w_protease, LOPAC1280 primary screen with protease, 5 µM compound, replicate 1, read-out: Replicate_1
[24] = sheet LOPAC_screen_w_protease, LOPAC1280 primary screen with protease, 5 µM compound, replicate 2, read-out: Replicate_2

## CCCCCCC(C)(C)c1ccc([C@@H]2C[C@H](O)CC[C@H]2CCCO)c(O)c1 [CP55940]
[1]
  inhibition at 5 µM: 2.22%
[2]
  inhibition at 5 µM: 1.74%
[3]
  inhibition at 5 µM: 2.71%

## CN1C[C@H](CNC(=O)OCc2ccccc2)C[C@@H]2c3cccc4c3c(cn4C)C[C@H]21 [Metergoline]
Sheet LOPAC_screen_w_protease, primary screen of LOPAC1280 at 5 µM with protease, mean of the two replicates, read-out: mean
  inhibition at 5 µM: 4.08%
Sheet LOPAC_screen_w_protease, primary screen of LOPAC1280 at 5 µM with protease, replicate 1, read-out: Replicate_1
  inhibition at 5 µM: 2.56%
Sheet LOPAC_screen_w_protease, primary screen of LOPAC1280 at 5 µM with protease, replicate 2, read-out: Replicate_2
  inhibition at 5 µM: 5.6%

## N#C/C(=C\c1ccc(O)c(O)c1)C(=O)NCc1ccccc1 [Tyrphostin AG 490]
Sheet LOPAC_screen_w_protease, primary screen with protease, compound at 5 µM, mean of two replicates, read-out: mean
  inhibition at 5 µM: 2.61%
Sheet LOPAC_screen_w_protease, primary screen with protease, compound at 5 µM, replicate 1, read-out: Replicate_1
  inhibition at 5 µM: 3.18%
Sheet LOPAC_screen_w_protease, primary screen with protease, compound at 5 µM, replicate 2, read-out: Replicate_2
  inhibition at 5 µM: 2.05%

## CNCCNS(=O)(=O)c1cccc2cnccc12.Cl.Cl [H-8 dihydrochloride]
[4]
  mean (LOPAC screen with protease): 10.4369
[5]
  Replicate_1 (LOPAC screen with protease): 9.7701
[6]
  Replicate_2 (LOPAC screen with protease): 11.1038

## N[C@H](CCCCCP(=O)(O)O)C(=O)O [D(-)-2-Amino-7-phosphonoheptanoic acid]
Sheet LOPAC_screen_w_protease, primary screen with protease, compound at 5 µM, mean of two replicates
  mean: 3.051
Sheet LOPAC_screen_w_protease, primary screen with protease, compound at 5 µM, replicate 1
  Replicate_1: 3.469
Sheet LOPAC_screen_w_protease, primary screen with protease, compound at 5 µM, replicate 2
  Replicate_2: 2.633

## Cl.c1ccc([C@H]2CN3CCSC3=N2)cc1 [(-)-Tetramisole hydrochloride]
  Replicate_1: 0.0709
  Replicate_2: 1.236
  mean: 0.6536

## CCCCC/C=C\C[C@@H](O)/C=C/c1cccc(C[C@@H](O)CCCCO)n1 [U-75302]
[7]
  mean (LOPAC_screen_w_protease): 1.3528
[8]
  Replicate_1 (LOPAC_screen_w_protease): 0.07831
[9]
  Replicate_2 (LOPAC_screen_w_protease): 2.627

## CC(Cc1ccc(O)c(O)c1)C(C)Cc1ccc(O)c(O)c1 (centres unmarked)
[4]
  mean (LOPAC screen with protease): 97.9088
[5]
  Replicate_1 (LOPAC screen with protease): 97.7665
[6]
  Replicate_2 (LOPAC screen with protease): 98.0511

## OC[C@H]1O[C@@H](n2cnc3c(NCCc4ccccc4)ncnc32)[C@H](O)[C@@H]1O [N6-2-Phenylethyladenosine]
[10]
  mean: 0.6761
[11]
  Replicate_1: 1.884
[12]
  Replicate_2: -0.5317

## COc1ccc2c(c1OC)C(=O)OC2C1c2cc3c(cc2CCN1C)OCO3 (single isomer, unassigned; (+)) [(+)-Hydrastine]
[13]
  inhibition at 5 µM: 2.51%
[14]
  inhibition at 5 µM: 0.711%
[7]
  mean (LOPAC_screen_w_protease): 1.61

## C[N+]1(C)[C@@H]2CC[C@H]1C[C@@H](OC(=O)C(CO)c1ccccc1)C2 (some centres unmarked) [Atropine methyl bromide]
[13]
  inhibition at 5 µM: 2.3%
[14]
  inhibition at 5 µM: 1.25%
[15]
  mean (LOPAC_screen_w_protease): 1.779

## O=c1c(O)c(-c2ccc(O)cc2O)oc2cc(O)cc(O)c12 [Morin]
read-out: Replicate_1
  inhibition at 5 µM: 6.85%
read-out: Replicate_2
  inhibition at 5 µM: 5.63%
read-out: mean
  inhibition at 5 µM: 6.24%

## COc1ccc2c(c[n+](C)c3c4cc5c(cc4ccc23)OCO5)c1OC [Chelerythrine chloride]
[16]
  inhibition at 5 µM: 11.5%
[17]
  inhibition at 5 µM: 12.7%
[18]
  inhibition at 5 µM: 10.3%

## CN1CCN(C2=Nc3cc(Cl)ccc3Nc3ccccc32)CC1 [Clozapine]
[1]
  inhibition at 5 µM: 2.28%
[2]
  inhibition at 5 µM: 2.27%
[3]
  inhibition at 5 µM: 2.3%

## CC(N/C(=N\C#N)Nc1ccncc1)C(C)(C)C (centres unmarked) [Pinacidil]
Sheet LOPAC_screen_w_protease, LOPAC1280 at 5 µM, mean of two replicates, read-out: mean
  inhibition at 5 µM: 1.05%
Sheet LOPAC_screen_w_protease, LOPAC1280 at 5 µM, replicate 1, read-out: Replicate_1
  inhibition at 5 µM: 2.49%
Sheet LOPAC_screen_w_protease, LOPAC1280 at 5 µM, replicate 2, read-out: Replicate_2
  inhibition at 5 µM: -0.383%

## NCCc1c[nH]c2ccc(O)cc12 [Serotonin hydrochloride]
[13]
  inhibition at 5 µM: 2.37%
[14]
  inhibition at 5 µM: 1.09%
[7]
  mean (LOPAC_screen_w_protease): 1.729

## CC(N)Cc1c[nH]c2ccc(OCc3cccs3)cc12 (centres unmarked) [BW 723C86]
  Replicate_1: 2.832
  Replicate_2: 3.4189
  mean: 3.125

## Cl.NCCCCNS(=O)(=O)c1ccc2c(Cl)cccc2c1
[10]
  mean: 0.6799
[11]
  Replicate_1: 0.88
[12]
  Replicate_2: 0.4798

## Cc1cc(NC(=O)Nc2ccc3c(ccn3C)c2)sn1 [SB 204741]
[19]
  mean: 0.4215
[20]
  Replicate_1: 0.3793
[21]
  Replicate_2: 0.4638

## COc1ccc2[nH]cc(CCNC(C)=O)c2c1 [Melatonin]
[1]
  inhibition at 5 µM: 2.28%
[2]
  inhibition at 5 µM: 3.18%
[3]
  inhibition at 5 µM: 1.38%

## CC(=O)[C@H]1CC[C@H]2[C@@H]3CCC4=CC(=O)CC[C@]4(C)[C@H]3CC[C@]12C [Progesterone]
[22]
  inhibition at 5 µM: 5.55%
[23]
  inhibition at 5 µM: 3.58%
[24]
  inhibition at 5 µM: 7.53%

## Cc1[nH]c(=O)c(C#N)cc1-c1ccncc1 [Milrinone]
[22]
  inhibition at 5 µM: 4.26%
[23]
  inhibition at 5 µM: 3.12%
[24]
  inhibition at 5 µM: 5.4%

## N.N.N.Nc1ncnc2c1ncn2C1OC(COP(=O)(O)OP(=O)(O)OP(=O)(O)OP(=O)(O)OC[C@H]2O[C@@H](n3cnc4c(N)ncnc43)C(O)C2O)[C@@H](O)C1O (stereo in doubt)
[15]
  mean (LOPAC_screen_w_protease): 2.093
[8]
  Replicate_1 (LOPAC_screen_w_protease): 3.71
[9]
  Replicate_2 (LOPAC_screen_w_protease): 0.4753

## O=C(O)c1cc(=O)c2ccccc2[nH]1 [Kynurenic acid]
[13]
  inhibition at 5 µM: 3.13%
[14]
  inhibition at 5 µM: 0.793%
[15]
  mean (LOPAC_screen_w_protease): 1.961

## O=C(NCCNCC(O)COc1ccc(O)cc1)N1CCOCC1 (centres unmarked) [Xamoterol hemifumarate]
Sheet LOPAC_screen_w_protease, LOPAC1280 primary screen at 5 µM, with protease, mean of the two replicates, read-out: mean
  inhibition at 5 µM: 0.551%
Sheet LOPAC_screen_w_protease, LOPAC1280 primary screen at 5 µM, with protease, replicate 1, read-out: Replicate_1
  inhibition at 5 µM: 1.09%
Sheet LOPAC_screen_w_protease, LOPAC1280 primary screen at 5 µM, with protease, replicate 2, read-out: Replicate_2
  inhibition at 5 µM: 0.0143%

## CN(C)C(=O)C(CCN1CCC(O)(c2ccc(Cl)cc2)CC1)(c1ccccc1)c1ccccc1 [Loperamide hydrochloride]
[1]
  inhibition at 5 µM: 2.22%
[2]
  inhibition at 5 µM: 4.2%
[3]
  inhibition at 5 µM: 0.237%

## COc1cc(NS(C)(=O)=O)ccc1Nc1c2ccccc2nc2ccccc12 [Amsacrine hydrochloride]
[22]
  inhibition at 5 µM: 4.23%
[23]
  inhibition at 5 µM: 4.22%
[24]
  inhibition at 5 µM: 4.24%

## CCOC(=O)Nc1ccc(NCc2ccc(F)cc2)nc1N [Flupirtine maleate]
[16]
  inhibition at 5 µM: 10.9%
[17]
  inhibition at 5 µM: 11.1%
[18]
  inhibition at 5 µM: 10.6%

## N[C@@H](COP(=O)(O)O)C(=O)O [O-Phospho-L-serine]
Sheet LOPAC_screen_w_protease, LOPAC1280 primary screen with protease, 5 µM compound, mean of the two replicates
  mean: 5.279
Sheet LOPAC_screen_w_protease, LOPAC1280 primary screen with protease, 5 µM compound, replicate 1
  Replicate_1: 3.193
Sheet LOPAC_screen_w_protease, LOPAC1280 primary screen with protease, 5 µM compound, replicate 2
  Replicate_2: 7.365

## CCCCS(=N)(=O)CC[C@H](N)C(=O)O (stereo partly drawn) [L-Buthionine-sulfoximine]
[13]
  inhibition at 5 µM: 1.94%
[14]
  inhibition at 5 µM: 2.27%
[15]
  mean (LOPAC_screen_w_protease): 2.107

## CC(C)CC(N)CSSCC(N)CC(C)C.Cl.Cl [L-Leucinethiol, oxidized dihydrochloride]
[4]
  mean (LOPAC screen with protease): 45.1144
[5]
  Replicate_1 (LOPAC screen with protease): 48.0888
[6]
  Replicate_2 (LOPAC screen with protease): 42.1401

## S(-)-DS 121 hydrochloride
Sheet LOPAC_screen_w_protease, primary screen with protease, mean of two replicates
  mean: 2.32
Sheet LOPAC_screen_w_protease, primary screen with protease, replicate 1
  Replicate_1: 2.977

## O=C(O)CCC(C(=O)O)N1C(=O)c2ccccc2C1=O [L-Glutamic acid, N-phthaloyl-]
Sheet LOPAC_screen_w_protease, LOPAC1280 at 5 µM, mean of two replicates
  mean: 1.263
Sheet LOPAC_screen_w_protease, LOPAC1280 at 5 µM, replicate 1
  Replicate_1: 1.846
Sheet LOPAC_screen_w_protease, LOPAC1280 at 5 µM, replicate 2
  Replicate_2: 0.6803

## CC(C)[C@H](CO)Nc1nc(Nc2cccc(Cl)c2)c2ncn(C(C)C)c2n1 [Purvalanol A]
[1]
  inhibition at 5 µM: 2.33%
[2]
  inhibition at 5 µM: 2.6%
[3]
  inhibition at 5 µM: 2.06%

## CCCCC/C=C\C/C=C\C/C=C\C/C=C\CCCC(=O)NCC(=O)O [N-arachidonylglycine]
[19]
  mean: 0.3785
[20]
  Replicate_1: 1.728
[21]
  Replicate_2: -0.9708
